The numbers were not newly measured in publication PMC3420346 (Bioorganic & medicinal chemistry, 2012), which cites them from elsewhere.

The conditions of data set [1]: compared with related 9-riboside derivatives.

Turning to `CNc1nc(I)nc2c1ncn2[C@H]1C[C@H](OP(=O)(O)O)[C@]2(COP(=O)(O)O)C[C@H]12` [Compound 1, (1′R,2′S,4′S,5′S)-4-(2-iodo-6-methylamino-purin-9-yl)-1-[(phosphato)-methyl]-2-(phosphato)-bicyclo[3.1.0]hexane], the Resistance to degradation entry in data set [1] is on record as “more resistant to degradation than related 9-riboside derivatives”. Besides, the “Reduction of thrombus formation in vivo” value with thrombus formation is “effective in reducing thrombus formation in vivo”.
